Assay results as given in patent publication US9695156B2, “Compounds for the treatment and prevention of infections” (Brown University, priority 2012, dated 2017).

Experiments:
JCPyV [1] = experiment: Dose dependent inhibition of infection, flow cytometric scoring, SVG-A cells; format: cell-based, JC polyomavirus; conditions: for inhibition of JCPyV infection (FIG. 8C): 100 μM, SVG-A cells pre-incubated, flow cytometry
[2] = Conversion (cyclization) of Retro-2 in solution; format: physicochemical
BKPyV [3] = experiment: Binding of labeled virus to Vero cells, flow cytometry; format: cell-based, BK polyomavirus; conditions: 100 μM, 1 h pretreatment
JCPyV [4] = experiment: Endocytosis assay, trypan blue quenching, confocal microscopy; format: cell-based, JC polyomavirus; conditions: 100 μM Retro-2, 30 μM chloropromazine; fixed at 2 h
SV40 [5] = experiment: VP2 release assay; format: cell-based, simian virus 40; conditions: 100 μM Retro-2, 500 ng/mL brefeldin A; MOI 10, 10 hpi
BKPyV [6] = experiment: Dose dependent inhibition of infection, flow cytometric scoring, Vero cells; format: cell-based, BK polyomavirus; conditions: Betapolyomavirus hominis, VP1 at 72 h, compared to vehicle control, read-out: calculated EC50, decrease in percentage of cells expressing VP1
CTxB [7] = format: cell-based
SV40 [8] = experiment: Time course (time of addition) experiment, Vero cells; format: cell-based, simian virus 40
JCPyV [9] = experiment: Multicycle growth assay and reinfection assay in established infection, SVG-A cells; format: cell-based, JC polyomavirus
JCPyV [10] = experiment: Time course (time of addition) experiment, SVG-A cells; format: cell-based, JC polyomavirus
BKPyV [11] = experiment: Multicycle growth assay and reinfection assay in established infection, Vero cells; format: cell-based, BK polyomavirus
SV40 [12] = experiment: Endocytosis assay, trypan blue quenching, confocal microscopy; format: cell-based, simian virus 40; conditions: 100 μM Retro-2, 100 μM nystatin; fixed at 2 h
BKPyV [13] = experiment: VP2 release assay; format: cell-based, BK polyomavirus; conditions: 100 μM Retro-2, 500 ng/mL brefeldin A; MOI 10, 10 hpi
BKPyV [14] = experiment: Endocytosis assay, trypan blue quenching, confocal microscopy; format: cell-based, BK polyomavirus; conditions: 100 μM Retro-2, 100 μM nystatin; fixed at 2 h
JCPyV [15] = experiment: VP2 release assay; format: cell-based, JC polyomavirus; conditions: 100 μM Retro-2, 500 ng/mL brefeldin A; MOI 10, 10 hpi
SV40 [16] = experiment: Multicycle growth assay and reinfection assay in established infection, Vero cells; format: cell-based, simian virus 40
Ad5-GFP pseudovirus = format: cell-based, Adenovirus Type 5; conditions: Vero cells pre-treated, GFP positive cells by flow cytometry
SV40 [17] = experiment: Binding of labeled virus to Vero cells, flow cytometry; format: cell-based, simian virus 40; conditions: 100 μM, 1 h pretreatment
SVG-A or Vero cells = format: cell-based
Method: The viability of SVG-A or Vero cells were first tested after treatment with Retro-2^cycl. Cells were treated with Retro-2^cycl at the indicated concentrations for 72 h before viability was assessed using the CellTiter 96 AQueous One Solution Cell Proliferation Assay. As a control, cells were treated with either 0.04% DMSO or with 10% SDS. Error bars denote standard deviation.

BKPyV [18] = experiment: ER trafficking assay, colocalization with PDI; format: cell-based, BK polyomavirus
SV40 [19] = experiment: ER trafficking assay, colocalization with PDI; format: cell-based, simian virus 40
Stx2 = conditions: cited from earlier work
SV40 [20] = experiment: Dose dependent inhibition of infection, flow cytometric scoring, Vero cells; format: cell-based, simian virus 40; conditions: Betapolyomavirus macacae, VP1 at 72 h, compared to vehicle control, read-out: calculated EC50, decrease in percentage of cells expressing VP1
JCPyV [21] = experiment: ER trafficking assay, colocalization with PDI; format: cell-based, JC polyomavirus
BKPyV [22] = experiment: Time course (time of addition) experiment, Vero cells; format: cell-based, BK polyomavirus
CTxB [23] = format: cell-based; remark: listed apart in the source
cells = conditions: cited from earlier work
[24] = 100 μM, re-fed daily, 12 days post infection, MOI 0.01

With `CCc1ccc(C2Nc3ccccc3C(=O)N2c2ccccc2)s1` (stereo not drawn) [BU62382A4] the “potency against polyomavirus infectivity relative to Retro-2^cycl” value (JCPyV [1]; preliminary SAR, ethyl instead of methyl at position 5 of thiophenyl ring) was “does not negatively impact potency”.
With `Cc1ccc(/C=N/c2ccccc2C(=O)Nc2ccccc2)s1` [Retro-2, 2-(((5-methylthiophen-2-yl)methylene)amino)-N-phenylbenzamide] the “conversion to Retro-2^cycl in solution” value [2] was “rapidly converts”.
For `Cc1ccc(C2Nc3ccccc3C(=O)N2c2ccccc2)s1` (stereo not drawn) [Retro-2^cycl, 2-(5-methylthiophen-2-yl)-3-phenyl-2,3-dihydroquinazolin-4(1H)-one], the “binding to cells compared to vehicle control” value (BKPyV [3]) was “slight decreases”, the inhibition of endocytosis (JCPyV [4]) was “does not inhibit endocytosis” and the “cells exposing VP2” value (SV40 [5]) was “significant reduction of cells exposing VP2”. For the same compound, the EC50 (BKPyV [6]) was 61.2 µM, the inhibition of endocytosis (CTxB [7]) was “does not inhibit endocytosis” and the “infectivity regained when compound is added late” value (“infectivity regained” below) (SV40 [8]) was “greater than 80%”. The “time of addition after which most of the inhibitory effect is lost” value (“time … of the inhibitory effect is lost” below) (SV40 [8]) was over 12 h, the “time of addition at which infectivity is still significantly reduced” value (SV40 [8]) was “up to 4 hours post infection (hpi)” and the “inhibition of viral spread (percentage of infected cells vs vehicle control)” value (JCPyV [9]; [24]) was 90.5%. For the same compound, the “infectious virions in tissue culture supernatant (reinfection of naive cells)” value (“infectious virions” for short) (JCPyV [9]; cultures treated with 100 μM) was “significantly less infectious virions”, the “cytopathic effect in JCV infected SVG-A cells” value (JCPyV [9]; phase contrast microscopy at 15 days post infection, vs DMSO) was “reduces cytopathic effect” and the “infectivity regained” value (JCPyV [10]) was “greater than 80%”. The “time … of the inhibitory effect is lost” value (JCPyV [10]) was over 14 h, the “time of addition at which infectivity is still significantly reduced” value (JCPyV [10]) was “up to 4 hours post infection (hpi)” and the “inhibition of viral spread (percentage of infected cells vs vehicle control)” value (BKPyV [11]; [24]) was 89%. The “infectious virions” value (BKPyV [11]; cultures treated with 100 μM) was “significantly less infectious virions”, the inhibition of endocytosis (SV40 [12]) was “does not inhibit endocytosis” and the “cells exposing VP2” value (BKPyV [13]) was “significant reduction of cells exposing VP2”. For the same compound, the inhibition of endocytosis (BKPyV [14]) was “does not inhibit endocytosis”, the “cells exposing VP2” value (JCPyV [15]) was “significant reduction of cells exposing VP2” and the “inhibition of viral spread (percentage of infected cells vs vehicle control)” value (SV40 [16]; [24]) was 84%. The “infectious virions” value (SV40 [16]; cultures treated with 100 μM) was “significantly less infectious virions”, the “inhibition of Ad5-GFP transduction” value (Ad5-GFP pseudovirus) was “did not inhibit transduction” and the “binding to cells compared to vehicle control” value (SV40 [17]) was “slight decreases”. The EC50 (JCPyV [1]; JC polyomavirus, SVG-A cells, VP1 at 72 h, compared to vehicle control, read-out: calculated EC50, decrease in percentage of cells expressing VP1) was 28.4 µM, the “cell viability at effective doses” value (SVG-A or Vero cells) was “do not negatively affect cell viability” and the “colocalization with the ER protein PDI” value (BKPyV [18]) was “significantly reduces colocalization”. The “colocalization with the ER protein PDI” value (SV40 [19]) was “reduced, although this reduction was not significant”, the “protection of cells from toxin” value (Stx2) was “able to protect cells” and the EC50 (SV40 [20]) was 58.6 µM. For the same compound, the “co-localization of JCV-633 with Rab5 endosomes” value (JCPyV [21]) was “increases co-localization”, the “colocalization with the ER protein PDI” value (JCPyV [21]) was “significantly reduces colocalization” and the “infectivity regained” value (BKPyV [22]) was “greater than 80%”. For the same compound, the “time … of the inhibitory effect is lost” value (BKPyV [22]) was over 12 h, the “time of addition at which infectivity is still significantly reduced” value (BKPyV [22]) was “up to 4 hours post infection (hpi)” and the “colocalization with the ER protein PDI” value (CTxB [23]) was “significantly reduces colocalization”.
For `Cc1ccc(/C=N/c2cccc(C(=O)Nc3ccccc3)c2)s1` [Retro-2^meta], the “inhibition of JCPyV infection (FIG. 8C)” value (JCPyV [1]) was “significantly less active”, the “colocalization with the ER protein PDI” value (BKPyV [18]) was “significant colocalization” and the “colocalization with the ER protein PDI” value (SV40 [19]) was “significant colocalization”. For the same compound, the “colocalization with the ER protein PDI” value (JCPyV [21]) was “significant colocalization” and the “colocalization with the ER protein PDI” value (CTxB [23]) was “significant colocalization”.
For `Cc1ccc(CNc2ccccc2C(=O)Nc2ccccc2)s1` [Retro-2^red], the “inhibition of JCPyV infection (FIG. 8C)” value (JCPyV [1]) was “significantly less active”.
In the case of `C[C@H]1CCC/C=C/[C@@H]2C[C@H](O)C[C@H]2[C@H](O)/C=C/C(=O)O1` [brefeldin A, reference compound], the “cells exposing VP2” value (SV40 [5]) is given as “significant reduction in the number of cells with VP2 exposed”, the cytotoxicity to cells (cells) is given as “highly cytotoxic” and the “cells exposing VP2” value (BKPyV [13]) is given as “significant reduction in the number of cells with VP2 exposed”. For the same compound, the “cells exposing VP2” value (JCPyV [15]) was “significant reduction in the number of cells with VP2 exposed”, the reduction in infectivity (JCPyV [1]; 20 ng/mL, SVG-A cells, positive control) was 96% and the “colocalization with the ER protein PDI” value (BKPyV [18]) was “significantly reduces colocalization”. The “colocalization with the ER protein PDI” value (SV40 [19]) was “reduced, although this reduction was not significant”, the “colocalization with the ER protein PDI” value (JCPyV [21]) was “significantly reduces colocalization” and the “colocalization with the ER protein PDI” value (CTxB [23]) was “significantly reduces colocalization”.
For `CN(C)CCCN1c2ccccc2Sc2ccc(Cl)cc21` [chloropromazine, reference compound], the inhibition of endocytosis (JCPyV [4]) was “inhibits endocytosis”.
With `C[C@@H]1[C@H](O)[C@@H](C)/C=C/C=C/CC/C=C/C=C/C=C/C=C/C(O[C@H]2O[C@H](C)[C@@H](O)[C@H](N)[C@@H]2O)CC2O[C@](O)(CC(O)C(O)CCC(O)CC(O)CC(O)CC(=O)O[C@H]1C)CC(O)C2C(=O)O` (stereo partly drawn) [nystatin, reference compound] the inhibition of endocytosis (CTxB [7]) was “inhibits endocytosis”, the inhibition of endocytosis (SV40 [12]) was “inhibits endocytosis” and the inhibition of endocytosis (BKPyV [14]) was “inhibits endocytosis”.
